From patent US20240024273A1, “TOPICAL ADMINISTRATION OF 2-(DIETHYLAMINO)ETHYL 2-(4-ISOBUTYLPHENYL)PROPRIONATE FOR TREATMENT OF DISEASES” (TECHFIELDS PHARMA CO., LTD., priority 2020, published 2024)

System: Mild to Moderate Osteoarthritis of the Knee
Assay: Phase 2 study: WOMAC difficulty performing daily activities subscale score
Assay type: in vivo, human
Conditions: for Change of WOMAC Difficulty performing daily activities score from baseline (±SEM) / Percentage of improvement from baseline, WOMAC Difficulty performing daily activities score: all patients taken as active
Source text: This is a Phase 2, multicenter, randomized, double blind (within dose), placebo controlled, parallel group, proof of concept, and dose range finding study to evaluate the efficacy, safety, and PK of 2-(diethylamino)ethyl 2-(4-isobutylphenyl)propionate hydrochloride spray in adult subjects with clinically symptomatic mild to moderate OA of the knee. For subjects with bilateral knee pain, both knees will be treated, but the most symptomatic knee (i.e., the most painful knee as measured by the Western Ontario and McMaster University Osteoarthritis Index [WOMAC® 3.1] pain subscale score at Screening) will be designated as the target knee for efficacy analyses. For subjects with unilateral knee pain, only the symptomatic (target) knee will be treated.
After a Screening Period of up to 3 weeks and radiographic evaluation of the target knee joint space, a subject will be randomly assigned to 1 of 3 treatment groups in a 1:1:1 ratio with a 2:1 ratio of active:placebo within each treatment group (ie, 2 subjects to active treatment and 1 subject to placebo): • Group A: 8.75 mg 2-(diethylamino)ethyl 2-(4-isobutylphenyl)propionate/knee (2 sprays/knee, one spray to the medial surface and one spray to the lateral surface of the knee), twice daily (BID, approximately every 12 hours; n=50) or placebo (2 sprays/knee), BID (approximately every 12 hours; n=25) for a total of 4 sprays per knee per day; • Group B: 17.5 mg 2-(diethylamino)ethyl 2-(4-isobutylphenyl)propionate/knee (4 sprays/knee, one spray to the medial surface and one spray to the lateral surface of the knee, and one spray to front and one spray to the back of the knee), BID (approximately every 12 hours; n=50) or placebo (4 sprays/knee), BID (approximately every 12 hours; n=25) for a total of 8 sprays per knee per day; • Group C: 35 mg 2-(diethylamino)ethyl 2-(4-isobutylphenyl)propionate/knee (8 sprays/knee, each spray is to be applied to a different non-overlapping area around the knee, and the areas are to be uniformly distributed around the knee), BID (approximately every 12 hours; n=50) or placebo (8 sprays/knee), BID (approximately every 12 hours; n=25) for a total of 16 sprays per knee per day.
The VAS version of the WOMAC will be used for the Primary and Secondary Efficacy Endpoints. Efficacy endpoints will be assessed at Screening and Baseline (Day 1) and at the Week 2, Week 4, Week 8, and Week 12/EOS visits.
3.9.2. Secondary Efficacy Endpoints: • 1. Change from Baseline in the WOMAC (VAS) pain subscale score for the target knee at 2, 4, and 8 weeks of treatment; • 2. Change from Baseline in the WOMAC (VAS) stiffness subscale scores for the target knee and WOMAC (VAS) functional ability subscale scores at 2, 4, 8, and 12 weeks of treatment; • 3. Change from Baseline in the overall WOMAC (VAS) score at 2, 4, 8, and 12 weeks of treatment.
The Secondary Efficacy Endpoints, change from Baseline in the WOMAC subscale scores for pain, stiffness, and functional ability, and overall WOMAC score at 2, 4, 8, and 12 weeks of treatment, will be analyzed using the same methods as for the Primary Efficacy Endpoint.
To determine this, we assumed that all patients received 2-(diethylamino)ethyl 2-(4-isobutylphenyl)propionate, active drug treatment (i.e. all patients who received 2-(diethylamino)ethyl 2-(4-isobutylphenyl)propionate or placebo treatment for 12 weeks or mixed up treatment during the 12-week treatment, as 2-(diethylamino)ethyl 2-(4-isobutylphenyl)propionate-treated). Based on this assumption, that is, to treat this trial as an open-label study and that all patients received active treatment, we conducted efficacy analysis using top-line efficacy datasets prepared by CRO and the re-analysis results are presented in the following tables (Tables 29-47). […] (William G. Bensen, Justus J. Fiechtner, James 1. McMillen, et. al. Treatment of Osteoarthritis with Celecoxib. Mayo Clin Proc, November 1999. Vol 74, 1095-1105.)

[1] = 8.75 mg/knee (BID), Follow up (week 13, day 91)
[2] = 8.75 mg/knee (BID), Week 2 (day 14)
[3] = 8.75 mg/knee (BID), Week 4 (day 28)
[4] = 8.75 mg/knee (BID), Week 8 (day 56)
[5] = 8.75 mg/knee (BID), Week 12 (day 84)
[6] = 17.5 mg/knee (BID), Follow up (week 13, day 91)
[7] = 17.5 mg/knee (BID), Week 2 (day 14)
[8] = 17.5 mg/knee (BID), Week 4 (day 28)
[9] = 17.5 mg/knee (BID), Week 8 (day 56)
[10] = 17.5 mg/knee (BID), Week 12 (day 84)
[11] = 35 mg/knee (BID), Follow up (week 13, day 91)
[12] = 35 mg/knee (BID), Week 2 (day 14)
[13] = 35 mg/knee (BID), Week 4 (day 28)

## CCN(CC)CCOC(=O)C(C)c1ccc(CC(C)C)cc1 (stereo not shown) [2-(diethylamino)ethyl 2-(4-isobutylphenyl)propionate]
[1]
  Change of WOMAC Difficulty performing daily activities score from baseline (±SEM), adjusted by […] of the Testing Drug Amount: −34.6(±5.8) mm
  Percentage of improvement from baseline, WOMAC Difficulty performing daily activities score, adjusted by […] of the Testing Drug Amount: −57.6%
  Change of WOMAC Difficulty performing daily activities score from baseline (±SEM): −20.3(±3.4) mm
  Percentage of improvement from baseline, WOMAC Difficulty performing daily activities score: −33.6%
[2]
  Change of WOMAC Difficulty performing daily activities score from baseline (±SEM), adjusted by […] of the Testing Drug Amount: −18.2(±4.4) mm
  Percentage of improvement from baseline, WOMAC Difficulty performing daily activities score, adjusted by […] of the Testing Drug Amount: −30.0%
  Change of WOMAC Difficulty performing daily activities score from baseline (±SEM): −10.6(±2.6) mm
  Percentage of improvement from baseline, WOMAC Difficulty performing daily activities score: −17.5%
[3]
  Change of WOMAC Difficulty performing daily activities score from baseline (±SEM), adjusted by […] of the Testing Drug Amount: −28.1(±5.1) mm
  Percentage of improvement from baseline, WOMAC Difficulty performing daily activities score, adjusted by […] of the Testing Drug Amount: −46.7%
  Change of WOMAC Difficulty performing daily activities score from baseline (±SEM): −16.4(±3.0) mm
  Percentage of improvement from baseline, WOMAC Difficulty performing daily activities score: −27.2%
[4]
  Change of WOMAC Difficulty performing daily activities score from baseline (±SEM), adjusted by […] of the Testing Drug Amount: −33.1(±5.3) mm
  Percentage of improvement from baseline, WOMAC Difficulty performing daily activities score, adjusted by […] of the Testing Drug Amount: −54.9%
  Change of WOMAC Difficulty performing daily activities score from baseline (±SEM): −19.3(±3.1) mm
  Percentage of improvement from baseline, WOMAC Difficulty performing daily activities score: −32.0%
[5]
  Change of WOMAC Difficulty performing daily activities score from baseline (±SEM), adjusted by […] of the Testing Drug Amount: −35.3(±5.8) mm
  Percentage of improvement from baseline, WOMAC Difficulty performing daily activities score, adjusted by […] of the Testing Drug Amount: −58.5%
  Change of WOMAC Difficulty performing daily activities score from baseline (±SEM): −20.6(±3.4) mm
  Percentage of improvement from baseline, WOMAC Difficulty performing daily activities score: −34.1%
[6]
  Change of WOMAC Difficulty performing daily activities score from baseline (±SEM), adjusted by […] of the Testing Drug Amount: −39.6(±5.5) mm
  Percentage of improvement from baseline, WOMAC Difficulty performing daily activities score, adjusted by […] of the Testing Drug Amount: −62.4%
  Change of WOMAC Difficulty performing daily activities score from baseline (±SEM): −23.1(±3.2) mm
  Percentage of improvement from baseline, WOMAC Difficulty performing daily activities score: −36.4%
[7]
  Change of WOMAC Difficulty performing daily activities score from baseline (±SEM), adjusted by […] of the Testing Drug Amount: −26.2(±4.1) mm
  Percentage of improvement from baseline, WOMAC Difficulty performing daily activities score, adjusted by […] of the Testing Drug Amount: −41.3%
  Change of WOMAC Difficulty performing daily activities score from baseline (±SEM): −15.3(±2.4) mm
  Percentage of improvement from baseline, WOMAC Difficulty performing daily activities score: −24.1%
[8]
  Change of WOMAC Difficulty performing daily activities score from baseline (±SEM), adjusted by […] of the Testing Drug Amount: −36.2(±4.8) mm
  Percentage of improvement from baseline, WOMAC Difficulty performing daily activities score, adjusted by […] of the Testing Drug Amount: −57.1%
  Percentage of improvement from baseline, WOMAC Difficulty performing daily activities score: −33.3%
[9]
  Change of WOMAC Difficulty performing daily activities score from baseline (±SEM), adjusted by […] of the Testing Drug Amount: −41.3(±5.1) mm
  Percentage of improvement from baseline, WOMAC Difficulty performing daily activities score, adjusted by […] of the Testing Drug Amount: −65.2%
  Change of WOMAC Difficulty performing daily activities score from baseline (±SEM): −24.1(±3.0) mm
  Percentage of improvement from baseline, WOMAC Difficulty performing daily activities score: −38.0%
[10]
  Change of WOMAC Difficulty performing daily activities score from baseline (±SEM), adjusted by […] of the Testing Drug Amount: −46.1(±5.5) mm
  Percentage of improvement from baseline, WOMAC Difficulty performing daily activities score, adjusted by […] of the Testing Drug Amount: −72.7%
  Change of WOMAC Difficulty performing daily activities score from baseline (±SEM): −26.9(±3.2) mm
  Percentage of improvement from baseline, WOMAC Difficulty performing daily activities score: −42.4%
[11]
  Change of WOMAC Difficulty performing daily activities score from baseline (±SEM), adjusted by […] of the Testing Drug Amount: −35.0(±4.5) mm
  Percentage of improvement from baseline, WOMAC Difficulty performing daily activities score, adjusted by […] of the Testing Drug Amount: −60.9%
  Change of WOMAC Difficulty performing daily activities score from baseline (±SEM): −20.4(±2.6) mm
  Percentage of improvement from baseline, WOMAC Difficulty performing daily activities score: −35.5%
[12]
  Change of WOMAC Difficulty performing daily activities score from baseline (±SEM), adjusted by […] of the Testing Drug Amount: −16.1(±3.3) mm
  Percentage of improvement from baseline, WOMAC Difficulty performing daily activities score, adjusted by […] of the Testing Drug Amount: −28.1%
  Change of WOMAC Difficulty performing daily activities score from baseline (±SEM): −9.4(±1.9) mm
  Percentage of improvement from baseline, WOMAC Difficulty performing daily activities score: −16.4%
[13]
  Change of WOMAC Difficulty performing daily activities score from baseline (±SEM), adjusted by […] of the Testing Drug Amount: −23.0(±3.9) mm
  Percentage of improvement from baseline, WOMAC Difficulty performing daily activities score, adjusted by […] of the Testing Drug Amount: −40.0%
  Change of WOMAC Difficulty performing daily activities score from baseline (±SEM): −13.4(±2.3) mm
  Percentage of improvement from baseline, WOMAC Difficulty performing daily activities score: −23.3%
35 mg/knee (BID), Week 8 (day 56)
  Change of WOMAC Difficulty performing daily activities score from baseline (±SEM), adjusted by […] of the Testing Drug Amount: −31.6(±4.5) mm
